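Results reflect a 48-hour exposure of cells in 96-well plates to compound at five concentrations. At the GI50, growth is halved. TGI denotes the concentration required for complete inhibition of growth.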
How the values were obtained:
Experiment in all cases: NCI tumour cell line growth inhibition, 48 h
BT-549 breast = system: BT-549 breast
CAKI-1 renal = system: CAKI-1 renal
HL-60(TB) leukemia = system: HL-60(TB) leukemia
IGROV1 ovarian = system: IGROV1 ovarian
KM12 colon = system: KM12 colon
M14 melanoma = system: M14 melanoma
OVCAR-8 ovarian = system: OVCAR-8 ovarian
SNB-19 CNS = system: SNB-19 CNS
SNB-75 CNS = system: SNB-75 CNS
TK-10 renal = system: TK-10 renal

Structure (SMILES)	GI50 (BT-549 breast)	TGI (BT-549 breast)	GI50 (CAKI-1 renal)	TGI (CAKI-1 renal)	GI50 (HL-60(TB) leukemia)	TGI (HL-60(TB) leukemia)	GI50 (IGROV1 ovarian)	TGI (IGROV1 ovarian)	GI50 (KM12 colon)	TGI (KM12 colon)	GI50 (M14 melanoma)	TGI (M14 melanoma)	GI50 (OVCAR-8 ovarian)	TGI (OVCAR-8 ovarian)	GI50 (SNB-19 CNS)	TGI (SNB-19 CNS)	GI50 (SNB-75 CNS)	TGI (SNB-75 CNS)	GI50 (TK-10 renal) [µM]	TGI (TK-10 renal) [µM]
COc1ccc(N=N/C(=N\NC(=O)c2cc(Br)ccc2O)c2ccc(N(CCC#N)CCC#N)cc2OC)cc1	> 150 mg/L	> 150 mg/L	53.3 mg/L	> 150 mg/L	56.7 mg/L	> 150 mg/L	39.6 mg/L	> 150 mg/L	44.6 mg/L	128 mg/L	83.7 mg/L	> 150 mg/L	47.5 mg/L	> 150 mg/L	> 150 mg/L	> 150 mg/L	27.6 mg/L	86.8 mg/L		
COc1cc(-c2cc(-c3cccs3)c(C#N)c(N3CCOCC3)n2)cc(OC)c1OC	8.22 µM	> 100 µM	> 21.6 µM	> 100 µM	3.12 µM	29.7 µM	13.7 µM	> 100 µM	6.02 µM	> 100 µM			> 30.4 µM	> 100 µM	> 76.1 µM	> 100 µM	10 µM	> 63 µM	> 39	> 94.1
CC(=O)OC1CC2C(C)(C)CCC[C@]2(C)C2=C1C(O)=C(C(C)C)C(=O)C2=O (some centres undefined)	1.16 µM	3.34 µM	0.567 µM	2.9 µM	0.613 µM	4.23 µM	1.53 µM	5.52 µM	0.644 µM	2.15 µM	0.442 µM	1.83 µM	2.14 µM	14.5 µM	0.646 µM	> 46 µM	1.2 µM	3.03 µM	1.43	12.8
COC(=O)CC1C2(C)C3=C(C)C(c4ccoc4)CC3OC2C2OC(=O)C3(C)C=CC(=O)C1(C)C23 (centres undefined)		2.35 µM		2.15 µM		2.76 µM		3.29 µM		3.55 µM		3.25 µM		5.44 µM		7.1 µM		12.3 µM		5.94
Clc1ccc(-c2nc3c(-c4ccccc4)nc(-c4ccccc4)cn3c2-c2ccc(Cl)cc2)cc1	> 100 µM	> 100 µM	> 100 µM	> 100 µM	> 100 µM	> 100 µM	> 100 µM	> 100 µM	> 100 µM	> 100 µM	> 100 µM	> 100 µM	> 100 µM	> 100 µM	> 100 µM	> 100 µM	91.4 µM	> 100 µM	> 100	> 100
O=C1Nc2ccc(O)cc2/C1=C\c1ccncc1	15.2 µM	43.6 µM	17.9 µM	54.2 µM	36 µM	> 100 µM	4.27 µM	41.6 µM	16.9 µM	46.4 µM	15.8 µM	39.6 µM	25.4 µM	> 100 µM	21.2 µM	59 µM			18.6	39.8
O=C(Nc1ccn(C2CC(I)C(COC(c3ccccc3)(c3ccccc3)c3ccccc3)O2)c(=O)n1)c1ccccc1 (centres undefined)		67 µM		21.5 µM		21.5 µM		21.5 µM		24 µM		13.8 µM		13.1 µM		21.5 µM		9.61 µM		21.5
CN1CCN(Cc2ccc(NC(=O)c3cncc(C#Cc4c(N)ncc5c(F)cccc45)c3)cc2C(F)(F)F)CC1	1.64 µM	4.32 µM	0.86 µM	1.61 µM	0.33 µM	1.22 µM	0.726 µM	1.61 µM	0.0133 µM	0.65 µM	0.388 µM	1.17 µM	0.988 µM	2.24 µM	0.867 µM	1.59 µM	0.827 µM	1.55 µM	0.951	1.71
COc1cc(N2CCN(C(C)C)CC2)ccc1Nc1nc(Nc2ccc(F)cc2C(=O)NCC(O)CO)c2cc[nH]c2n1 (centres undefined)	8.23 µM	> 25 µM	> 25 µM	> 25 µM	1.08 µM	13.6 µM	11.1 µM	> 25 µM	10.6 µM	> 25 µM	12 µM	> 25 µM	16.3 µM	> 25 µM	7.41 µM	> 25 µM	13.3 µM	> 25 µM	11.9	> 25
Cc1ccc(S(=O)(=O)OCC(=O)Nc2ccc(C(=O)O)c(O)c2)cc1	71.6 µM	206 µM	14.7 µM	91.1 µM	26.1 µM	193 µM	18 µM	92.3 µM	73.6 µM	199 µM	28.2 µM	85 µM	30.3 µM	106 µM	66.5 µM	242 µM	47.3 µM	185 µM	207	464
CCC(CC)c1cc(N[C@H]2CC[C@H](N)C2)n2nccc2n1	1.36 µM	3.22 µM	0.423 µM	> 100 µM	0.324 µM	14.9 µM	2.38 µM	> 100 µM	1.7 µM	> 100 µM	1.74 µM	5.4 µM	2.77 µM	> 100 µM	1.06 µM	> 100 µM	1.28 µM	3.32 µM	3.58	> 100
CON=C1C[C@]2(C[C@@H]3C[C@@H](C/C=C(\C)C[C@@H](C)/C=C/C=C4\CO[C@@H]5[C@H](O)C(C)=C[C@@H](C(=O)O3)[C@]45O)O2)O[C@H](/C(C)=C/C(C)C)[C@H]1C	18 µM	33.4 µM	7.52 µM	21.6 µM	2.48 µM	5.92 µM	11.5 µM	23.9 µM	8.1 µM	21.9 µM	16.1 µM	33.1 µM	16.3 µM	39.1 µM	15.7 µM	35.3 µM	18.7 µM	35.3 µM	17.8	33.4

From PubChem BioAssay (NCI)
